In patent US7183075B2, “Purified and isolated potassium-chloride cotransporter nucleic acids and polypeptides and therapeutic and screening methods using same” (Vanderbilt University, priority 2000, dated 2007):

Tests used:
rat KCC2 = molecular target: T1, rat KCC2 (Rattus norvegicus, UniProt Q63633); settings: rat KCC2 in HEK293 cells; read-out: chloride affinity (Km) reported for rKCC2; cited from earlier work
T1 construct: host or cells: HEK293 cells
T1 sequence (Q63633 1-1116 isoform Q63633-2): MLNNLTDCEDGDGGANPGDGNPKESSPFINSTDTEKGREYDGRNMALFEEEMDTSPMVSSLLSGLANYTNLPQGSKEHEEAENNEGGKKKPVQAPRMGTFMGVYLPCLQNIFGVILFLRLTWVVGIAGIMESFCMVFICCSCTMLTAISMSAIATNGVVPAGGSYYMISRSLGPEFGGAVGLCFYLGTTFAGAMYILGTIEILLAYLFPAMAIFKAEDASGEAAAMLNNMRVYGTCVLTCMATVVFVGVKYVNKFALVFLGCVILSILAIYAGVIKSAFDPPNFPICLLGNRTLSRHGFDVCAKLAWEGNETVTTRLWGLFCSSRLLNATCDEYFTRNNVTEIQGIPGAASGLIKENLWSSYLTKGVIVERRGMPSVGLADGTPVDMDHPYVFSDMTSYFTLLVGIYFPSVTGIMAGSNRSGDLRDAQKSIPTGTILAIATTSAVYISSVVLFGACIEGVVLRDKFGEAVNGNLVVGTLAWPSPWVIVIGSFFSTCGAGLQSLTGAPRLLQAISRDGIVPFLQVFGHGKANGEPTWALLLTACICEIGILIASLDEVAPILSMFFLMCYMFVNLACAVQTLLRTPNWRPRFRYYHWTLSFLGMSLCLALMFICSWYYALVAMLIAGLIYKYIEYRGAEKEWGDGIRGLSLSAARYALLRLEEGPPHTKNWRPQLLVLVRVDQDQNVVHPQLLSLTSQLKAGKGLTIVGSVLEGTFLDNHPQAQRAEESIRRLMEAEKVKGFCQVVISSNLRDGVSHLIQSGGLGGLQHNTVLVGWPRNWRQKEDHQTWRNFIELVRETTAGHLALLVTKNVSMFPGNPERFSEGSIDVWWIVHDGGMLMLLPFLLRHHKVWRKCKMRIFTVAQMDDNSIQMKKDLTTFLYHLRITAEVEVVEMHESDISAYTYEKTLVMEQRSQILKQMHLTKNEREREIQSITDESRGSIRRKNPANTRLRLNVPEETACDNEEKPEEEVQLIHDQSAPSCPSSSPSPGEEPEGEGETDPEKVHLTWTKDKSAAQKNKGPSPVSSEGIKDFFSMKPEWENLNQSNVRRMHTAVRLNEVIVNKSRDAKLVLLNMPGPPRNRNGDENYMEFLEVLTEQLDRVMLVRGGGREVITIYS

[1] = test system: Na^+—K^+-2Cl^− cotransport activity of Xenopus oocytes; experiment: Endogenous Na+-K+-2Cl- cotransport activity of Xenopus oocytes; assay type: cell-based; settings: 100 μM DIOA
Method: The sensitivity of the KCCs to other inhibitors of red cell K^+—Cl^− cotransport was also assessed in oocytes injected with KCC4 or KCC1. FIG. 18 illustrates the effect of 100 μM DIDS and 100 μM DIOA on the ^86Rb^+ uptake induced by the microinjection of each KCC cRNA. The effect of extracellular K^+ concentration on the inhibition of cotransport was very dramatic for DIDS. […] However, inhibition of KCC4 was higher when extracellular K^+ was lower, although this was not the case for KCC1. DIOA is reportedly specific for K^+—Cl^− cotransport over Na^+—K^+-2Cl^− cotransport (Garay et al. (1988) Mol Pharmacol 33:696–701), and the same concentration of DIOA had no effect on the function of the Na^+—K^+-2Cl^− cotransport activity of Xenopus oocytes (Gamba et al. (1994) J Biol Chem 269: 17713–17722).

hKCC3b = molecular target: T2, hKCC3b (Homo sapiens, UniProt Q9UHW9); assay type: cell-based; settings: 2 mM furosemide; 100 nM calyculin A
T2 construct: expressed in transfected cells; host or cells: Xenopus oocytes microinjected with KCC3b cRNA
T2 sequence (Q9UHW9 1-1099 isoform Q9UHW9-2): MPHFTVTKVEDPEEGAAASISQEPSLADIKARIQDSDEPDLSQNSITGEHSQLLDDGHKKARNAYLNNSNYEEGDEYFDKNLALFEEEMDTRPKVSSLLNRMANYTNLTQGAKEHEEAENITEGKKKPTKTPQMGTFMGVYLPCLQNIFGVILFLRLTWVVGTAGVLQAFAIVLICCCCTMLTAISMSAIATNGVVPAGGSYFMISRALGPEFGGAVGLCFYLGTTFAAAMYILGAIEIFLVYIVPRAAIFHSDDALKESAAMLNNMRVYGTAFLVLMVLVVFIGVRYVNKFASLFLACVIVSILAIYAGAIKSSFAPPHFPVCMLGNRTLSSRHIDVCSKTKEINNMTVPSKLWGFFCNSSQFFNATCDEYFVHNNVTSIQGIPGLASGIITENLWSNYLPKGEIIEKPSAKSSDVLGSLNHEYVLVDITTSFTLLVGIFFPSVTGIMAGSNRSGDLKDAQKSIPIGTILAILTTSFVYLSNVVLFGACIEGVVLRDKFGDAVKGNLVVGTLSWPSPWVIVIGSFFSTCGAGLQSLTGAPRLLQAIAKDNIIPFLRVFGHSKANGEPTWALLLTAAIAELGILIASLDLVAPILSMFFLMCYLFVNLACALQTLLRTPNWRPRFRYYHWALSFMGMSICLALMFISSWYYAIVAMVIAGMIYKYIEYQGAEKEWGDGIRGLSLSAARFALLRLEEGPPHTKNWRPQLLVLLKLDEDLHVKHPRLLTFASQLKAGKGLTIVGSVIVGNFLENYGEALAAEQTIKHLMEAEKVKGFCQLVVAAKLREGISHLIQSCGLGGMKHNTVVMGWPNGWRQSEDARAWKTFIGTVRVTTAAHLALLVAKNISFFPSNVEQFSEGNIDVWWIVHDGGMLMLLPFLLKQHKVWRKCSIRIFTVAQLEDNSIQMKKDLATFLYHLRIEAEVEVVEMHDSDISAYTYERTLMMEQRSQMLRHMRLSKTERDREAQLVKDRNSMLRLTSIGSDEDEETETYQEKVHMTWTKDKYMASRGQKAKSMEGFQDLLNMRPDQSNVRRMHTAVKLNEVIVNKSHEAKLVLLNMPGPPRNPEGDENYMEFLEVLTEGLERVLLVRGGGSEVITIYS
Method: Open bars, uptake assays performed in a control medium containing 10 mM K^+and 50 mM Cl^−; hatched bars, uptake assays performed in medium lacking Cl^−; bars with horizontal stripes, uptake assays performed in the presence of 100 nM calyculin A; black bars, uptake assays performed in the presence of okadaic acid; gray bars, uptake assays performed in the presence of cypermetrin.

Question: For `Cl` [Chloride], which Km (rat KCC2) is on record?
Answer: Its Km is > 50 mM.

Question: With `CCCCC1(C2CCCC2)Cc2cc(OCC(=O)O)c(Cl)c(Cl)c2C1=O` (stereo not drawn) [DIOA] as the compound, how does the “effect on Na+-K+-2Cl- cotransport activity of Xenopus oocytes” value [1] read?
Answer: Its value is “no effect”.

Question: With `COC[C@@H]([C@H](O)[C@H](O)C(=O)NCC[C@H](C)c1nc(/C=C/C[C@@H]2O[C@]3(C[C@@H](O)[C@@H]2C)O[C@H]([C@H](C[C@H](O)[C@H](C)[C@H](O)[C@H](C)/C=C(C)/C(C)=C/C=C/C(C)=C\C#N)OC)[C@H](OP(=O)(O)O)C3(C)C)co1)N(C)C` [calyculin A] as the compound, how does the “hKCC3b-mediated K+-Cl- cotransport in the presence of putative inhibitors” value (hKCC3b) read?
Answer: Its value is “blocked”.
